Laboratory results published in the supplement of paper PMC10307832.

Legend:
Test in all cases: relative viability (nuclei count vs DMSO), 5 days (fraction); higher = more cells survive
RU-SKI 43 + Foretinib = compound: CC[C@@H](C)CNCC(=O)N1CCC2=C([C@@H]1COC3=CC=CC(=C3)C)C=CS2 [RU-SKI 43] + COc1cc2c(Oc3ccc(NC(=O)C4(C(=O)Nc5ccc(F)cc5)CC4)cc3F)ccnc2cc1OCCCN1CCOCC1 [Foretinib] (partner 0.25 µM)
How it was run: (§1)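 Lung cancer cell lines were seeded in 1536-well plates and dosed by pin tool the next day, with either a single drug or a fixed anchor-drug dose combined with five library-drug doses (not always all listed) spaced in √10 steps. Five days later, one step fixed the cells and stained their nuclei (final 0.05% Triton X-100, 1% formaldehyde, 1 ug/ml Hoechst), and nuclei were counted on 4× images. Relative viability is the nuclei count in treated wells divided by the count in vehicle wells, and each value is the median of duplicate plates.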

Irinotecan + Pemetrexed = compound: CCc1c2c(nc3ccc(OC(=O)N4CCC(N5CCCCC5)CC4)cc13)-c1cc3c(c(=O)n1C2)COC(=O)[C@]3(O)CC [Irinotecan] + Nc1nc2[nH]cc(CCc3ccc(C(=O)N[C@@H](CCC(=O)O)C(=O)O)cc3)c2c(=O)[nH]1 [Pemetrexed] (partner 0.2 µM)
How it was run: as §1

MK-8033 + Tozasertib = compound: Cn1cc(-c2cnc3ccc4ccc(CS(=O)(=O)NCc5ccccn5)cc4c(=O)c3c2)cn1 [MK-8033] + Cc1cc(Nc2cc(N3CCN(C)CC3)nc(Sc3ccc(NC(=O)C4CC4)cc3)n2)n[nH]1 [Tozasertib] (partner 0.1 µM)
How it was run: as §1

MK-8033 + Decitabine = compound: Cn1cc(-c2cnc3ccc4ccc(CS(=O)(=O)NCc5ccccn5)cc4c(=O)c3c2)cn1 [MK-8033] + Nc1ncn([C@H]2C[C@H](O)[C@@H](CO)O2)c(=O)n1 [Decitabine] (partner 2 µM)
How it was run: as §1

| Cell Line | relative viability (RU-SKI 43 + Foretinib; first compound 0.1 µM) | relative viability (RU-SKI 43 + Foretinib; first compound 0.3162 µM) | relative viability (RU-SKI 43 + Foretinib; first compound 1 µM) | relative viability (RU-SKI 43 + Foretinib; first compound 3.162 µM) | relative viability (RU-SKI 43 + Foretinib; first compound 10 µM) | relative viability (Irinotecan + Pemetrexed; first compound 0.6325 µM) | relative viability (Irinotecan + Pemetrexed; first compound 2 µM) | relative viability (Irinotecan + Pemetrexed; first compound 6.325 µM) | relative viability (Irinotecan + Pemetrexed; first compound 20 µM) | relative viability (MK-8033 + Tozasertib; first compound 0.02 µM) | relative viability (MK-8033 + Tozasertib; first compound 0.2 µM) | relative viability (MK-8033 + Tozasertib; first compound 0.6325 µM) | relative viability (MK-8033 + Tozasertib; first compound 2 µM) | relative viability (MK-8033 + Decitabine; first compound 0.02 µM) | relative viability (MK-8033 + Decitabine; first compound 0.06325 µM) | relative viability (MK-8033 + Decitabine; first compound 0.2 µM) | relative viability (MK-8033 + Decitabine; first compound 0.6325 µM) | relative viability (MK-8033 + Decitabine; first compound 2 µM) | relative viability (MK-8033 + Tozasertib; first compound 0.06325 µM) |
| --- | --- | --- | --- | --- | --- | --- | --- | --- | --- | --- | --- | --- | --- | --- | --- | --- | --- | --- | --- |
| HCC-78 | 0.541 | 0.6 | 0.592 | 0.591 | 0.479 | 0.87 | 0.99 | 0.897 | 0.94 | 0.482 | 0.414 | 1.83 | 0.404 | 0.657 | 0.728 | 0.645 | 0.559 | 0.692 | – |
| NCI-H441 | 0.981 | 1.01 | 1.09 | 1.04 | 0.842 | 0.261 | 0.178 | 0.222 | 0.241 | 0.578 | 0.62 | 0.605 | 0.475 | 0.237 | 0.237 | 0.231 | 0.264 | 0.238 | 0.568 |
| NCI-H1299 | 1.08 | 1.1 | 1.14 | 1.12 | 1.09 | – | – | – | – | – | – | – | – | – | – | – | – | – | – |
| LU99A | 0.86 | 0.99 | 0.815 | 0.742 | 0.731 | 0.162 | 0.126 | 0.155 | 0.109 | 0.268 | 0.281 | 0.268 | 0.269 | 0.853 | 0.901 | 0.849 | 0.951 | 0.883 | 0.262 |
| NCI-H1651 | 0.896 | 0.849 | 0.864 | 0.888 | 0.848 | 0.25 | 0.638 | 0.356 | 0.147 | 0.746 | 0.734 | 0.524 | 0.557 | 0.706 | 0.606 | 0.653 | 0.694 | 0.649 | 0.667 |
| HARA | 1.06 | 1.25 | 1.01 | 1.25 | 1.13 | 0.211 | 0.294 | 0.182 | 0.192 | 0.104 | 0.111 | 0.136 | 0.112 | 0.651 | 0.508 | 0.463 | 0.559 | 0.605 | 0.0979 |
| RERF-LC-KJ | 0.849 | 0.976 | 0.812 | 0.959 | 0.913 | 0.321 | 0.435 | 0.44 | 0.211 | 0.493 | 0.457 | 0.393 | 0.408 | 0.501 | 0.712 | 0.682 | 0.756 | 0.686 | 0.485 |
| LCLC-103H | 0.759 | 0.896 | 0.91 | 0.843 | 0.783 | 0.477 | 0.471 | 0.508 | 0.516 | 0.489 | 0.438 | 0.55 | 0.461 | 0.699 | 0.724 | 0.673 | 0.736 | 0.766 | 0.556 |
| SK-LU-1 | 0.831 | 0.979 | 0.826 | 0.836 | 0.638 | 0.521 | 0.455 | 0.334 | 0.276 | 0.328 | 0.304 | 0.327 | 0.312 | 0.545 | 0.539 | 0.559 | 0.638 | 0.657 | 0.35 |
| Calu-6 | 0.958 | 0.976 | 0.973 | 0.859 | 0.724 | – | – | – | – | – | – | – | – | – | – | – | – | – | – |
| NCI-H1648 | – | – | – | – | – | 0.703 | 0.68 | 0.453 | 0.423 | – | 0.405 | – | 0.426 | 0.402 | – | 0.543 | 0.515 | 0.468 | 0.404 |
| NCI-H522 | – | – | – | – | – | 0.966 | 0.824 | 0.566 | 0.498 | 0.606 | 0.53 | 0.496 | 0.599 | 0.552 | 0.617 | 0.73 | 0.612 | 0.725 | 0.477 |
| LOU-NH91 | 0.953 | 0.912 | 0.914 | 1.01 | 0.897 | 0.392 | 0.402 | 0.338 | 0.182 | 0.653 | 0.644 | 0.644 | 0.678 | 0.792 | 0.662 | 0.789 | 0.789 | 0.813 | 0.406 |
| HCC-366 | 0.975 | 1.01 | 0.994 | 1.04 | 0.811 | 0.15 | 0.192 | 0.0569 | 0.0611 | 0.114 | 0.0893 | 0.102 | 0.0504 | 0.327 | 0.361 | 0.331 | 0.36 | 0.366 | 0.131 |
| CAL-12T | 1.05 | 1.31 | 1.09 | 1.18 | 1.06 | 1.14 | 0.995 | 0.355 | 0.234 | 0.317 | 0.28 | 0.311 | 0.266 | – | – | – | – | – | 0.29 |
| PC-3 [JPC-3] | 1.02 | 1.04 | 1.11 | 1.06 | 0.976 | 0.512 | 1.25 | 0.522 | 0.463 | 0.856 | 0.806 | 0.878 | 0.787 | 0.803 | – | 0.748 | 0.845 | 0.804 | 0.825 |
| NCI-H2087 | 1.07 | 1.25 | 1.24 | 1.28 | 0.961 | 0.489 | 0.197 | 0.172 | 0.195 | 0.241 | 0.237 | 0.246 | 0.247 | 0.223 | 0.159 | 0.289 | 0.272 | 0.277 | 0.266 |
| NCI-H1395 | 0.865 | 0.985 | 1.05 | 1.01 | 1 | – | 0.754 | 0.518 | 0.246 | 0.757 | 0.735 | 0.76 | 0.707 | 0.68 | 0.701 | 0.71 | 0.7 | 0.693 | 0.651 |
| ABC-1 | 1.04 | 1.05 | 1.04 | 1.06 | 0.754 | – | – | – | – | 0.207 | 0.155 | 0.174 | 0.154 | 1.1 | 0.976 | 1.07 | 1.01 | 1.26 | 0.123 |
